For series [1], the system named is VRE#2 (2010A). The series is described as follows: Broth microdilution MIC. It is filed as cell-based, vancomycin-resistant Enterococcus. As to conditions: Enterococcus; VRE#2 (2010A); read-out: MIC (μg/mL) F. On the procedure:
(§1) The antimicrobial activities of PK inhibitor candidates were determined using the 96-well microtiter standard 2-fold serial broth microdilution method as described by CLSI (formerly NCCLS) with the various gram-positive and gram-negative bacteria species mentioned above. Bacteria from a single colony were grown, overnight in either BHI Broth (VRE), mueller hinton broth (S. aureus 29213; MRSA USA400) or L-broth (E. coli, P. aeruginosa, S. typhimuriu, K. Pneumonia and A. baumannii). […] Culture plates were incubated for 18-24 h at 37° C., and optical density at 600 nm (OD600) was measured using a Benchmark Plus™ microplate spectrophotometer (Bio-Rad™). The absorbance control values for the series containing CAMHB and inhibitor were subtracted as background from the corresponding infected wells. The MIC was defined as the lowest concentration of test compound leading to complete inhibition of cell growth in relationship to compound-free control wells as determined by optical density. […] All assays were run in triplicate (Tables 1-6) or duplicate. Experiments were replicated at least twice to verify reproducibility using the above conditions.
(§2) The antimicrobial activity of selected compounds against the gram negative bacteria Klebsiella pneumoniae, Acinetobacter baumannii, E. coli, Pseudomonas aeruginosa and Salmonella typhimurium, as well as additional gram positive bacteria, including drug-resistant strains, was tested according to the procedures provided under “General Methodologies” above.

Series [2] can be described thus: In vivo tolerability (MTD) study. On the procedure:
(§3) The MTD and pharmacokinetic profiles of compounds 123 and 178 administered IV or PO were determined in female CD-1 mice (6-8 weeks of age). Compounds were dissolved in 3% DMSO/6% Solutol® HS 15/10 mM PB (pH7.4) for IV administration and in 3% DMSO/6% Solutol® HS 15/water for oral administration.
For tolerability studies, one animal from each group was administered the lowest dose first and then observed for 60 min. […] On the following day, the next higher dose was administered using the same procedure outlined above. Animals were euthanized 24 hours after the last injection, a cardiac puncture blood sample was collected and processed for plasma. Thigh muscle was collected and a necropsy performed.

The test system of series [3] is E. coli (DAS 1-IMP). The experiment in a line: microbe, parasite or virus in culture. The series is classed as cell-based, Escherichia coli. Conditions: Escherichia coli, read-out: MIC (μg/mL) C, E. coli (DAS 1-IMP). On the procedure: as §1, §2
The nature of series [4]: Pharmacokinetic study. It is filed as in vivo, female CD-1 mice. Conditions: female, CD-1, mouse, plasma. On the procedure:
as §3
For the pharmacokinetic study, animals were injected with their respective compound at the dose indicated in 11. At their respective time point, animals were deeply anesthetized with isoflurane and then asphyxiated with CO2. Cardiac puncture blood was collected immediately following death, and the blood processed to generate plasma.

In series [5] the test system is S. typhimurium (SL 1344). The series is described as follows: Broth microdilution MIC. The series is classed as cell-based. As to conditions: Salmonella enterica. On the procedure:
as §1, §2

The test system of series [6] is A. baumannii (ATCC 19606). The experiment in a line: Broth microdilution MIC. It is filed as cell-based. Conditions: Acinetobacter baumannii, ATCC19606; A. baumannii (ATCC 19606); read-out: MIC (μg/mL) B. On the procedure:
as §1, §2

Series [7] has as its system P. aeruginosa (PA01). The experiment in a line: Broth microdilution MIC. It is filed as cell-based. Conditions: Pseudomonas aeruginosa. On the procedure: as §1, §2
The subject of series [8] is K. pneumoniae (C238). The series is described as follows: Broth microdilution MIC. The series is classed as cell-based. Conditions: Klebsiella pneumoniae; K. pneumoniae (C238); read-out: MIC (μg/mL) A. On the procedure:
as §1, §2

Series [9] relates to S. pyogenes (ATCC700294). The experiment in a line: Broth microdilution MIC. The series is classed as cell-based. Conditions: Streptococcus pyogenes. On the procedure: as §1, §2
The subject of series [10] is MRSA MW2 (USA400). The series is described as follows: Broth microdilution MIC. The series is classed as cell-based. As to conditions: Staphylococcus aureus; MRSA MW2 (USA400); read-out: MIC (μg/mL) G. On the procedure: as §1, §2

Structures are written as SMILES. ≈ marks a conversion by molar mass, not a printed value.

On to `O=C(c1c(-c2cc3cc(Cl)ccc3[nH]2)[nH]c2cc(Br)ccc12)C(F)(F)F` [Compound 178, 1-(6-bromo-5′-chloro-1H,1′H-[2,2′-biindol]-3-yl)-2,2,2-trifluoroethan-1-one], for which the MIC is 1 µg/mL (≈ 2.26 µM) in series [1]; over 64 µg/mL in series [3]; over 64 µg/mL in series [5]; over 64 µg/mL in series [6]; over 64 µg/mL in series [7]; 1 µg/mL (≈ 2.26 µM) in series [8]. Also, the figures for the MIC in series [9] and in series [10] were 1 µg/mL (≈ 2.26 µM) and 0.5 µg/mL (≈ 1.13 µM), respectively. In addition, the Tolerability result in series [2] (IV doses of 30 mg/kg) and in [2] (PO doses of 10 mg/kg) was “well tolerated” throughout. Moreover, in series [4] (10 mg/kg, PO administration, read-out: bioavailability (% F)), the bioavailability worked out at 21%. The same compound returned a Cmax in series [4] (IV administration at 3 mg/kg) of 19000 ng/mL. The half-life in series [4] (IV administration at 3 mg/kg) is 2.27 h.

The record behind these values is US20170216252A1, “ANTI-BACTERIAL PYRUVATE KINASE MODULATOR COMPOUNDS, COMPOSITIONS, USES AND METHODS” (SIMON FRASER UNIVERSITY, priority 2014, published 2017).
